What was measured:
[1] = system: Aspergillus flavus; assay: agar plate disc-diffusion, antifungal inhibition zone; type: cell-based
Description: (§1) The agar plate disc-diffusion method was applied. […] The discs were then placed onto the surface of agar plates (nutrient agar for bacteria and Sabouraud's dextrose agar for fungi) seeded with the test organism. Each plate contained 15 mL of the agar medium, previously seeded with 0.2 mL of the broth culture of each organism pregrown for 18 hours. The plates were incubated at 37° C. for 48 h, and 72 h for fungi. The inhibition zones were measured in mm. Discs impregnated with DMSO were used as a control, and its inhibition zone was subtracted from the tested compound actual inhibition zone.

[2] = system: Chrysosporium keratinophilum; assay: as above; type: cell-based
Description: as §1

[3] = system: Pseudomonas aeruginosa; assay: agar plate disc-diffusion, antibacterial inhibition zone; type: cell-based
Description: as §1

[4] = system: Escherichia coli; assay: as above; type: cell-based
Description: as §1

[5] = system: Staphylococcus aureus; assay: as above; type: cell-based
Description: as §1

[6] = system: Bacillus Cereus; assay: as above; type: cell-based
Description: as §1

[7] = system: different microbes; assay: agar plate disc-diffusion, overall antimicrobial activity; type: cell-based; settings: against different microbes (bacteria and fungi)
Description: The agar plate disc-diffusion method was applied. Sterilized filter papers (6 mm in diameter) were wetted with 10 μL of a solution of 5-((2-isopropyl-5-methylphenoxy)methyl)-3-(naphthalen-2-yl)-1,2,4-oxadiazole (3) to be tested, containing 10 mg/mL in DMSO, and the discs were allowed to air dry. The discs were then placed onto the surface of agar plates (nutrient agar for bacteria and Sabouraud's dextrose agar for fungi) seeded with the test organism. Each plate contained 15 mL of the agar medium, previously seeded with 0.2 mL of the broth culture of each organism pregrown for 18 hours. The plates were incubated at 37° C. for 48 h, and 72 h for fungi. The inhibition zones were measured in mm. Discs impregnated with DMSO were used as a control, and its inhibition zone was subtracted from the tested compound actual inhibition zone.

[8] = system: human prostate cancer cells (PC3); assay: cytotoxicity by SRB assay; type: cell-based; settings: 0.01 μM to 100 μM for 72 h
Source text: (§2) The anticancer activity of the described synthesized compounds against highly aggressive androgen-independent metastatic human prostate cancer cells (PC3) and osteosarcoma (MG-63) cells. The human prostate cancer cells (PC3) and human osteosarcoma cells (MG-63) were obtained from Nawah Scientific Inc. (Mokatam, Cairo, Egypt) and cultured in DMEM (Dulbecco's modified eagle's medium), Gibco, USA, supplemented with fetal bovine serum (FBS) at a concentration of 10% and 100 U/mL of penicillin and streptomycin (PS). The Cells were incubated at 37° C. in a humidified environment that contained 5% CO2.
(§3) Cells were seeded in 96-well plates as aliquots of 100 μL cell suspension and incubated in a complete media for 24 h. afterward, cells were treated with 5-((2-isopropyl-5-methylphenoxy)methyl)-3-(naphthalen-2-yl)-1,2,4-oxadiazole at diverse concentrations ranging from 0.01 μM to 100 μM for 72 h. Then, cells were fixed at 4° C. for one hour with 150 μL of 10% trichloroacetic acid (TCA). […] Then, 150 μL of Tris pH 10.5 (10 mM) was added, and the absorbance was measured at 540 nm using a BMG LABTECH®-FLUOstar Omega microplate reader (Ortenberg, Germany). Half maximal inhibitory concentrations (IC50) values were calculated for each experiment using GraphPad Prism 6 software. […]
(§4) The inhibition was calculated using the following equation: Inhibition %=100−Average Viability

[9] = system: human osteosarcoma cells (MG-63); assay: cytotoxicity by SRB assay; type: cell-based; settings: MG-63 cells, 0.01 μM to 100 μM for 72 h
Source text: as §2, §3, §4

[10] = A = concentration of comp. = 10,000 μL
[11] = B = concentration of comp. = 30,000 μL
[12] = C = concentration of comp. = 50,000 μL

O=C(O)c1cn(C2CC2)c2cc(N3CCNCC3)c(F)cc2c1=O [Cip., ciprofloxacin, reference compound]
inhibition zone [1, 10]: 29 mm
inhibition zone [1, 11]: 30 mm
inhibition zone [1, 12]: 42 mm
inhibition zone [2, 10]: 29 mm
inhibition zone [2, 11]: 30 mm
inhibition zone [2, 12]: 53 mm
inhibition zone [3, 10]: 29 mm
inhibition zone [3, 11]: 30 mm
inhibition zone [3, 12]: 53 mm
inhibition zone [4, 10]: 30 mm
inhibition zone [4, 11]: 39 mm
inhibition zone [4, 12]: 60 mm
inhibition zone [5, 10]: 43 mm
inhibition zone [5, 11]: 44 mm
inhibition zone [5, 12]: 53 mm
inhibition zone [6, 10]: 29 mm
inhibition zone [6, 11]: 30 mm
inhibition zone [6, 12]: 42 mm

Cc1ccc(C(C)C)c(OCc2nc(-c3ccc4ccccc4c3)no2)c1 [compound 3, 5-((2-isopropyl-5-methylphenoxy)methyl)-3-(naphthalen-2-yl)-1,2,4-oxadiazole]
inhibition zone [1, 10]: 20 mm
inhibition zone [1, 11]: 25 mm
inhibition zone [1, 12]: 33 mm
inhibition zone [2, 10]: 26 mm
inhibition zone [2, 11]: 29 mm
inhibition zone [2, 12]: 45 mm
antimicrobial activity [7]: excellent antimicrobial activities
melting point: 187 to 188 °C
antiproliferative activity [8]: excellent antiproliferative activities
antiproliferative activity [9]: excellent antiproliferative activities
inhibition zone [3, 10]: 25 mm
inhibition zone [3, 11]: 29 mm
inhibition zone [3, 12]: 40 mm
inhibition zone [4, 10]: 28 mm
inhibition zone [4, 11]: 34 mm
inhibition zone [4, 12]: 49 mm
inhibition zone [5, 10]: 17 mm
inhibition zone [5, 11]: 24 mm
inhibition zone [5, 12]: 32 mm
inhibition zone [6, 10]: 24 mm
inhibition zone [6, 11]: 27 mm
inhibition zone [6, 12]: 38 mm

Source: patent publication US11952354B1, “5-((2-isopropyl-5-methylphenoxy)methyl)-3-(naphthalen-2-yl)-1,2,4-oxadiazole as an anti-cancer and antimicrobial compound” (KING FAISAL UNIVERSITY, priority 2023, dated 2024)
